From BigSolDB 2.1

Cn1cc[nH]c1=S
solubility (mole fraction)
Conditions	278.15 K	283.15 K	288.15 K	293.15 K	298.15 K	303.15 K	308.15 K	313.15 K	318.15 K	323.15 K
in 1,4-dioxane	0.0435	0.0517	0.0616	0.0731	0.0874	0.102	0.119	0.141	0.164	0.187
in THF	0.0475	0.0542	0.0634	0.0733	0.0841	0.0972	0.112	0.13	0.148	0.169
in acetone	0.0425	0.0517	0.0623	0.0749	0.0889	0.107	0.124	0.147	0.167	0.193
in acetonitrile	0.016	0.0216	0.0267	0.0338	0.0416	0.0531	0.0668	0.0818	0.101	0.121
in ethanol	0.0275	0.0335	0.0417	0.0519	0.0645	0.0795	0.0968	0.117	0.139	0.167
in ethyl acetate	0.0159	0.018	0.0198	0.022	0.0246	0.0273	0.0306	0.0339	0.038	0.0428
in isobutanol	0.019	0.0233	0.0289	0.0365	0.0439	0.0542	0.0656	0.0809	0.0966	0.117
in isopropanol	0.0168	0.0225	0.029	0.0381	0.0478	0.0621	0.0788	0.0985	0.123	0.152
in methanol	0.06	0.0711	0.084	0.0996	0.125	0.148	0.177	0.21	0.244	0.283
in methyl acetate	0.0288	0.0337	0.0391	0.0452	0.0521	0.0593	0.07	0.0817	0.0936	0.107
in n-butanol	0.0194	0.026	0.0328	0.0414	0.0528	0.0665	0.0823	0.102	0.124	0.153
in n-propanol	0.0261	0.032	0.0385	0.0468	0.0558	0.0663	0.0786	0.0931	0.111	0.13
